Data taken from ChEMBL document CHEMBL1909046, “DrugMatrix in vitro pharmacology data”.

Experiments:
D(4) dopamine receptor = molecular target: T1, D(4) dopamine receptor (Homo sapiens, UniProt P21917); assay: DRUGMATRIX: Dopamine D4.2 radioligand binding (ligand: [3H] Spiperone); type: cell membranes, CHO-K1, Membrane; details: cho-k1; Not Active = under 50% inhibition at 10 µM
T1 sequence (P21917 whole entry): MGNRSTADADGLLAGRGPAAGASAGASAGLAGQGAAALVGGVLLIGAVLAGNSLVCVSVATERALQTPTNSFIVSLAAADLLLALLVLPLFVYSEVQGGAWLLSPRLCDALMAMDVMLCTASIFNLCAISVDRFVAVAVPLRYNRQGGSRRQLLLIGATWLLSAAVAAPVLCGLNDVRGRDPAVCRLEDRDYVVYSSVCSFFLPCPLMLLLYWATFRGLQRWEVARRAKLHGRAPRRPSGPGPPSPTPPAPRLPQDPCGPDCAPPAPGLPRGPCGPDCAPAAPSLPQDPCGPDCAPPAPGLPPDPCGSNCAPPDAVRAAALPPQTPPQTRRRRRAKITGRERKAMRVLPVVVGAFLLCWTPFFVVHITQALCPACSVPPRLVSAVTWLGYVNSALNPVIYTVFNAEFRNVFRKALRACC

Thromboxane-A synthase = molecular target: T2, Thromboxane-A synthase (Homo sapiens, UniProt P24557); assay: biochemical; type: tissue-based, Platelet; details: platelet;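 further: enzyme inhibition assay with PGH2 supplied as substrate; in other assays of this panel Not Active means under 50% inhibition at 10 µM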
T2 sequence (P24557 whole entry): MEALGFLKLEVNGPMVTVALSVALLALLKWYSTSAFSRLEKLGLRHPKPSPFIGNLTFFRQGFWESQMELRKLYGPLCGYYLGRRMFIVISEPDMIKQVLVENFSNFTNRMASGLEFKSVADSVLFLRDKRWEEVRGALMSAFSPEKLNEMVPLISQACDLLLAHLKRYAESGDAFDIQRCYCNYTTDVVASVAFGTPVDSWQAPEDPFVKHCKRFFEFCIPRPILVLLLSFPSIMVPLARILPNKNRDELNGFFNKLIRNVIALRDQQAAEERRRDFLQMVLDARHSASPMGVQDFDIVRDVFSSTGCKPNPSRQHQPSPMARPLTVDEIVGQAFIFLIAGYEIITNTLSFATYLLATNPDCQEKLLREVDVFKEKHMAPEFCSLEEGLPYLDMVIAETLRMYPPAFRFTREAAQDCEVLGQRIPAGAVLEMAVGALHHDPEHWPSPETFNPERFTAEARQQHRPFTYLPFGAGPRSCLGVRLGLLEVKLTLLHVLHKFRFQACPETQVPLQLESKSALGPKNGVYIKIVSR

Adenosine receptor A3 = molecular target: T3, Adenosine receptor A3 (Homo sapiens, UniProt P0DMS8); type: cell membranes, CHO-K1, Membrane; details: cho-k1;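 further: radioligand binding assay with AB-MECA serving as the labeled ligand; in other assays of this panel Not Active means under 50% inhibition at 10 µM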
T3 sequence (P0DMS8 whole entry): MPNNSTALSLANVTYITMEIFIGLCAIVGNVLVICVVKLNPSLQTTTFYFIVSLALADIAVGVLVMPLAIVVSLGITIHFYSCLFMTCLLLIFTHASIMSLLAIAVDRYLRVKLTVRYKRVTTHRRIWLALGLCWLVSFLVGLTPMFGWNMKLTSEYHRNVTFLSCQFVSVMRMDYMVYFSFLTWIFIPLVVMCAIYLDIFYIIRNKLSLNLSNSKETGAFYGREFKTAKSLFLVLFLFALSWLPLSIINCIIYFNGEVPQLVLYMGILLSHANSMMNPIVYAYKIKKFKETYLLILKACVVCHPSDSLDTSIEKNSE

Carbonic anhydrase 2 = Carbonic anhydrase 2 (Homo sapiens, UniProt P00918); assay: DRUGMATRIX: Carbonic Anhydrase II enzyme inhibition (substrate: 4-Nitrophenyl acetate (4-NPA)); type: tissue-based, Erythrocyte; details: erythrocyte; Not Active = under 50% inhibition at 10 µM
[1] = molecular target: Beta-1 adrenergic receptor (Homo sapiens, UniProt P08588); assay: DRUGMATRIX: Adrenergic beta1 radioligand binding (ligand: [125I] Cyanopindolol); type: cell membranes, CHO-K1, Membrane; details: cho-k1; Not Active = under 50% inhibition at 10 µM
[2] = molecular target: C-C chemokine receptor type 5 (Homo sapiens, UniProt P51681); type: cell membranes, Membrane; details: hek293; further: in other assays of this panel Not Active means under 50% inhibition at 10 µM
Insulin receptor = Insulin receptor (Rattus norvegicus, UniProt P15127); type: cell membranes, Wistar, Liver, Membrane; further: in other assays of this panel Not Active means under 50% inhibition at 10 µM
Chain of Insulin receptor (P15127 27-759 limits assumed): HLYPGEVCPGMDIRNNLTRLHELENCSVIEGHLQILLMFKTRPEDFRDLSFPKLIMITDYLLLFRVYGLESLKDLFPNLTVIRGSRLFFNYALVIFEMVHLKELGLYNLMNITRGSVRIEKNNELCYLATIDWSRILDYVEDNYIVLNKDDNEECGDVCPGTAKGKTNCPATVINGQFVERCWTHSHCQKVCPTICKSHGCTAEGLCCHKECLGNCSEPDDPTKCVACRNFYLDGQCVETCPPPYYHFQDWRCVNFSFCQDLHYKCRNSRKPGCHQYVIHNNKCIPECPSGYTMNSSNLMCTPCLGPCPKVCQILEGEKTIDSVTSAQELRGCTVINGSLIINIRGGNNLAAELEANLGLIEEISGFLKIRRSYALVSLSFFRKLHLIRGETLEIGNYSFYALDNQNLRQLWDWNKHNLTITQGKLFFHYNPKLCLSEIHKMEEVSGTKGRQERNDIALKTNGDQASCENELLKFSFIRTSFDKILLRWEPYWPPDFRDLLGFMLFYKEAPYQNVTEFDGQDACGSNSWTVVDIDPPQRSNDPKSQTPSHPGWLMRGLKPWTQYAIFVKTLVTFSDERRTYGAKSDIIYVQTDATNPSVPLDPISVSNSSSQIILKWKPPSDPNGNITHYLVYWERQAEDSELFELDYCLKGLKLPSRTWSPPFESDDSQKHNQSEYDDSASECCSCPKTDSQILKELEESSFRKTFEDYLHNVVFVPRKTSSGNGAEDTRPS
Chain of Insulin receptor (P15127 764-1383 limits assumed): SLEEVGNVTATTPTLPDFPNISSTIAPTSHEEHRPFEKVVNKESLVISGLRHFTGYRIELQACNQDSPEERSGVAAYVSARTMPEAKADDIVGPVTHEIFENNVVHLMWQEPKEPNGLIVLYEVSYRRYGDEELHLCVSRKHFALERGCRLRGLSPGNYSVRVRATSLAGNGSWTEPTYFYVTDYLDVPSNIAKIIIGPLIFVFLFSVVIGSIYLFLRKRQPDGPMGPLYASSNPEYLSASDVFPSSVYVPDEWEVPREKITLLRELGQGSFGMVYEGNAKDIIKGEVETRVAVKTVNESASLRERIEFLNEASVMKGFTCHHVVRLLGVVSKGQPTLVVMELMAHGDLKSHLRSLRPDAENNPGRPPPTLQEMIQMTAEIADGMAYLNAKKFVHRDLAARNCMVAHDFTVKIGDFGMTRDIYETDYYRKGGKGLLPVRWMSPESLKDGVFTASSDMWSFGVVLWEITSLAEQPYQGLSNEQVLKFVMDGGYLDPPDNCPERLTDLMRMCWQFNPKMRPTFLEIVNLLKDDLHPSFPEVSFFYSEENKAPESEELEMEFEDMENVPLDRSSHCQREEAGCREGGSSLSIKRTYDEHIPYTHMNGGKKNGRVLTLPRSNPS

Chain of Beta-1 adrenergic receptor (P08588 whole entry): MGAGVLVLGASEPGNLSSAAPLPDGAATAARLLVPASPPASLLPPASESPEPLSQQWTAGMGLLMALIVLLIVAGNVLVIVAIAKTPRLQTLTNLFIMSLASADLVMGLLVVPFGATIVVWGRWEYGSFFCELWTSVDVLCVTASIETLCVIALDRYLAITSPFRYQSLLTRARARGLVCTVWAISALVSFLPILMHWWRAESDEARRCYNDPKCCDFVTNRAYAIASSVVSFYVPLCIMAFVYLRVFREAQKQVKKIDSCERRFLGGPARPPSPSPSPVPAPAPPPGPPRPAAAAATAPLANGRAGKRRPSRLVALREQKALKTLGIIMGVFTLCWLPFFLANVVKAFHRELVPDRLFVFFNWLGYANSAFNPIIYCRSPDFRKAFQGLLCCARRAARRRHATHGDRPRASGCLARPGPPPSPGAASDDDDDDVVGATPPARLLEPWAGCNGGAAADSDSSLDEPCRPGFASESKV
Chain of C-C chemokine receptor type 5 (P51681 whole entry): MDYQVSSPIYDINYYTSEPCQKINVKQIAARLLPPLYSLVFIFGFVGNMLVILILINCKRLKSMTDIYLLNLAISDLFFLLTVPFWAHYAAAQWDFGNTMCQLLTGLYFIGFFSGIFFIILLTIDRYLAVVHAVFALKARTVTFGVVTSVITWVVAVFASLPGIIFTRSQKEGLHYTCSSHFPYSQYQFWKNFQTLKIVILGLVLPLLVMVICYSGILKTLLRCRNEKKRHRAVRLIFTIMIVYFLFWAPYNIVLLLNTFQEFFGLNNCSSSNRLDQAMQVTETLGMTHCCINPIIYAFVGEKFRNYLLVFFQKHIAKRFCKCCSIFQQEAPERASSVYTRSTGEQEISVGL

CC(C)C(=O)Nc1ccc([N+](=O)[O-])c(C(F)(F)F)c1 [FLUTAMIDE]
Not Active: IC50 (D(4) dopamine receptor) | IC50 (Thromboxane-A synthase) | IC50 (Adenosine receptor A3) | IC50 (Carbonic anhydrase 2) | IC50 [1] | IC50 [2] | IC50 (Insulin receptor)

N=C(N)NCCN1CCCCCCC1 [GUANETHIDINE]
Not Active: IC50 (D(4) dopamine receptor) | IC50 (Thromboxane-A synthase) | IC50 (Adenosine receptor A3) | IC50 (Carbonic anhydrase 2) | IC50 [1] | IC50 [2] | IC50 (Insulin receptor)

CC1(C)O[C@@H]2C[C@H]3[C@@H]4CCC5=CC(=O)CC[C@]5(C)[C@@]4(F)[C@@H](O)C[C@]3(C)[C@]2(C(=O)CCl)O1 [HALCINONIDE]
Not Active: IC50 (D(4) dopamine receptor) | IC50 (Thromboxane-A synthase) | IC50 (Adenosine receptor A3) | IC50 (Carbonic anhydrase 2) | IC50 [1] | IC50 [2] | IC50 (Insulin receptor)

O=c1[nH]c(=O)n([C@H]2C[C@H](O)[C@@H](CO)O2)cc1I [IDOXURIDINE]
Not Active: IC50 (D(4) dopamine receptor) | IC50 (Thromboxane-A synthase) | IC50 (Adenosine receptor A3) | IC50 (Carbonic anhydrase 2) | IC50 [1] | IC50 [2] | IC50 (Insulin receptor)

CC1Cc2ccccc2N1NC(=O)c1ccc(Cl)c(S(N)(=O)=O)c1 (stereo not given) [INDAPAMIDE]
Not Active: IC50 (D(4) dopamine receptor) | IC50 (Thromboxane-A synthase) | IC50 (Adenosine receptor A3) | IC50 (Carbonic anhydrase 2) | IC50 [1] | IC50 [2] | IC50 (Insulin receptor)

CCC(C)n1ncn(-c2ccc(N3CCN(c4ccc(OCC5COC(Cn6cncn6)(c6ccc(Cl)cc6Cl)O5)cc4)CC3)cc2)c1=O (stereo not given) [ITRACONAZOLE]
Not Active: IC50 (D(4) dopamine receptor) | IC50 (Thromboxane-A synthase) | IC50 (Adenosine receptor A3) | IC50 (Carbonic anhydrase 2) | IC50 [1] | IC50 [2] | IC50 (Insulin receptor)

CCCCN1CCCC[C@H]1C(=O)Nc1c(C)cccc1C [LEVOBUPIVACAINE]
Not Active: IC50 (D(4) dopamine receptor) | IC50 (Thromboxane-A synthase) | IC50 (Adenosine receptor A3) | IC50 (Carbonic anhydrase 2) | IC50 [1] | IC50 [2] | IC50 (Insulin receptor)

CCCCc1nc(Cl)c(CO)n1Cc1ccc(-c2ccccc2-c2nnn[nH]2)cc1 [LOSARTAN]
Not Active: IC50 (D(4) dopamine receptor) | IC50 (Thromboxane-A synthase) | IC50 (Adenosine receptor A3) | IC50 (Carbonic anhydrase 2) | IC50 [1] | IC50 [2] | IC50 (Insulin receptor)

Sc1ncnc2nc[nH]c12 [MERCAPTOPURINE ANHYDROUS]
Not Active: IC50 (D(4) dopamine receptor) | IC50 (Thromboxane-A synthase) | IC50 (Adenosine receptor A3) | IC50 (Carbonic anhydrase 2) | IC50 [1] | IC50 [2] | IC50 (Insulin receptor)

C[C@](N)(Cc1ccc(O)c(O)c1)C(=O)O [METHYLDOPA]
Not Active: IC50 (D(4) dopamine receptor) | IC50 (Thromboxane-A synthase) | IC50 (Adenosine receptor A3) | IC50 (Carbonic anhydrase 2) | IC50 [1] | IC50 [2] | IC50 (Insulin receptor)

C[C@]12CCC(=O)C=C1CC[C@@H]1[C@@H]2CC[C@@]2(C)[C@H]1CC[C@]2(C)O [METHYLTESTOSTERONE]
Not Active: IC50 (D(4) dopamine receptor) | IC50 (Thromboxane-A synthase) | IC50 (Adenosine receptor A3) | IC50 (Carbonic anhydrase 2) | IC50 [1] | IC50 [2] | IC50 (Insulin receptor)

Cc1ccccc1N1C(=O)c2cc(S(N)(=O)=O)c(Cl)cc2NC1C (stereo not given) [METOLAZONE]
Not Active: IC50 (D(4) dopamine receptor) | IC50 (Thromboxane-A synthase) | IC50 (Adenosine receptor A3) | IC50 (Carbonic anhydrase 2) | IC50 [1] | IC50 [2] | IC50 (Insulin receptor)

CCn1cc(C(=O)O)c(=O)c2cc(F)c(N3CCNCC3)cc21 [NORFLOXACIN]
Not Active: IC50 (D(4) dopamine receptor) | IC50 (Thromboxane-A synthase) | IC50 (Adenosine receptor A3) | IC50 (Carbonic anhydrase 2) | IC50 [1] | IC50 [2] | IC50 (Insulin receptor)

NC1=NC(=O)C(c2ccccc2)O1 (stereo not given) [PEMOLINE]
Not Active: IC50 (D(4) dopamine receptor) | IC50 (Thromboxane-A synthase) | IC50 (Adenosine receptor A3) | IC50 (Carbonic anhydrase 2) | IC50 [1] | IC50 [2] | IC50 (Insulin receptor)

Nc1nc2c(ncn2CCC(CO)CO)c(=O)[nH]1 [PENCICLOVIR]
Not Active: IC50 (D(4) dopamine receptor) | IC50 (Thromboxane-A synthase) | IC50 (Adenosine receptor A3) | IC50 (Carbonic anhydrase 2) | IC50 [1] | IC50 [2] | IC50 (Insulin receptor)

C=C(C)C1(O)OC(=O)C=C1OC (stereo not given) [PENICILLIC ACID]
Not Active: IC50 (D(4) dopamine receptor) | IC50 (Thromboxane-A synthase) | IC50 (Adenosine receptor A3) | IC50 (Carbonic anhydrase 2) | IC50 [1] | IC50 [2] | IC50 (Insulin receptor)

CC1(C)S[C@@H]2[C@H](NC(=O)Cc3ccccc3)C(=O)N2[C@H]1C(=O)O [PENICILLIN G]
Not Active: IC50 (D(4) dopamine receptor) | IC50 (Thromboxane-A synthase) | IC50 (Adenosine receptor A3) | IC50 (Carbonic anhydrase 2) | IC50 [1] | IC50 [2] | IC50 (Insulin receptor)

CCCN1C[C@H](CSC)C[C@@H]2c3cccc4[nH]cc(c34)C[C@H]21 [PERGOLIDE]
Not Active: IC50 (D(4) dopamine receptor) | IC50 (Thromboxane-A synthase) | IC50 (Adenosine receptor A3) | IC50 (Carbonic anhydrase 2) | IC50 [1] | IC50 [2] | IC50 (Insulin receptor)

C1CCC(C(CC2CCCCN2)C2CCCCC2)CC1 (stereo not given) [PERHEXILINE]
Not Active: IC50 (D(4) dopamine receptor) | IC50 (Thromboxane-A synthase) | IC50 (Adenosine receptor A3) | IC50 (Carbonic anhydrase 2) | IC50 [1] | IC50 [2] | IC50 (Insulin receptor)

CCOc1ccc(NC(C)=O)cc1 [PHENACETIN]
Not Active: IC50 (D(4) dopamine receptor) | IC50 (Thromboxane-A synthase) | IC50 (Adenosine receptor A3) | IC50 (Carbonic anhydrase 2) | IC50 [1] | IC50 [2] | IC50 (Insulin receptor)

Cc1ccc(N(CC2=NCCN2)c2cccc(O)c2)cc1 [PHENTOLAMINE]
Not Active: IC50 (D(4) dopamine receptor) | IC50 (Thromboxane-A synthase) | IC50 (Adenosine receptor A3) | IC50 (Carbonic anhydrase 2) | IC50 [1] | IC50 [2] | IC50 (Insulin receptor)

CNNCc1ccc(C(=O)NC(C)C)cc1 [PROCARBAZINE]
Not Active: IC50 (D(4) dopamine receptor) | IC50 (Thromboxane-A synthase) | IC50 (Adenosine receptor A3) | IC50 (Carbonic anhydrase 2) | IC50 [1] | IC50 [2] | IC50 (Insulin receptor)

CN(C)CCCN1c2ccccc2Sc2ccccc21 [PROMAZINE]
Not Active: IC50 (D(4) dopamine receptor) | IC50 (Thromboxane-A synthase) | IC50 (Adenosine receptor A3) | IC50 (Carbonic anhydrase 2) | IC50 [1] | IC50 [2] | IC50 (Insulin receptor)

CC(O)CO (stereo not given) [PROPYLENE GLYCOL]
Not Active: IC50 (D(4) dopamine receptor) | IC50 (Thromboxane-A synthase) | IC50 (Adenosine receptor A3) | IC50 (Carbonic anhydrase 2) | IC50 [1] | IC50 [2] | IC50 (Insulin receptor)

CADMIUM ACETATE
Not Active: IC50 (D(4) dopamine receptor) | Ki (D(4) dopamine receptor) | IC50 (Thromboxane-A synthase) | Ki (Thromboxane-A synthase) | IC50 (Adenosine receptor A3) | Ki (Adenosine receptor A3) | IC50 (Carbonic anhydrase 2) | Ki (Carbonic anhydrase 2) | IC50 [1] | Ki [1] | IC50 [2] | Ki [2] | IC50 (Insulin receptor) | Ki (Insulin receptor)

LEAD (II) ACETATE
Not Active: IC50 (D(4) dopamine receptor) | Ki (D(4) dopamine receptor) | IC50 (Thromboxane-A synthase) | Ki (Thromboxane-A synthase) | IC50 (Adenosine receptor A3) | Ki (Adenosine receptor A3) | IC50 (Carbonic anhydrase 2) | Ki (Carbonic anhydrase 2) | IC50 [1] | Ki [1] | IC50 [2] | Ki [2] | IC50 (Insulin receptor) | Ki (Insulin receptor)

LIPOPOLYSACCHARIDE E. COLI O55:B5
Not Active: IC50 (D(4) dopamine receptor) | Ki (D(4) dopamine receptor) | IC50 (Thromboxane-A synthase) | Ki (Thromboxane-A synthase) | IC50 (Adenosine receptor A3) | Ki (Adenosine receptor A3) | IC50 (Carbonic anhydrase 2) | Ki (Carbonic anhydrase 2) | IC50 [1] | Ki [1] | IC50 [2] | Ki [2] | IC50 (Insulin receptor) | Ki (Insulin receptor)
